Source: paper PMC6199744, “Development of Chemical Proteomics for the Folateome and Analysis of the Kinetoplastid Folateome” (ACS Infectious Diseases, 2018)
Read-outs that look alike come from different tables or passages of the source.

Experiments:
Assay type in all cases: binding
[1] = molecular target: T1, HeLa cell extract proteins (Homo sapiens, UniProt O95372)
T1 construct: endogenous in cells; host or cells: HeLa cell extract

[2] = molecular target: T2, HeLa cell extract proteins (Homo sapiens, UniProt O95382)
T2 construct: endogenous in cells; host or cells: HeLa cell extract
T2 sequence (O95382 1-1288): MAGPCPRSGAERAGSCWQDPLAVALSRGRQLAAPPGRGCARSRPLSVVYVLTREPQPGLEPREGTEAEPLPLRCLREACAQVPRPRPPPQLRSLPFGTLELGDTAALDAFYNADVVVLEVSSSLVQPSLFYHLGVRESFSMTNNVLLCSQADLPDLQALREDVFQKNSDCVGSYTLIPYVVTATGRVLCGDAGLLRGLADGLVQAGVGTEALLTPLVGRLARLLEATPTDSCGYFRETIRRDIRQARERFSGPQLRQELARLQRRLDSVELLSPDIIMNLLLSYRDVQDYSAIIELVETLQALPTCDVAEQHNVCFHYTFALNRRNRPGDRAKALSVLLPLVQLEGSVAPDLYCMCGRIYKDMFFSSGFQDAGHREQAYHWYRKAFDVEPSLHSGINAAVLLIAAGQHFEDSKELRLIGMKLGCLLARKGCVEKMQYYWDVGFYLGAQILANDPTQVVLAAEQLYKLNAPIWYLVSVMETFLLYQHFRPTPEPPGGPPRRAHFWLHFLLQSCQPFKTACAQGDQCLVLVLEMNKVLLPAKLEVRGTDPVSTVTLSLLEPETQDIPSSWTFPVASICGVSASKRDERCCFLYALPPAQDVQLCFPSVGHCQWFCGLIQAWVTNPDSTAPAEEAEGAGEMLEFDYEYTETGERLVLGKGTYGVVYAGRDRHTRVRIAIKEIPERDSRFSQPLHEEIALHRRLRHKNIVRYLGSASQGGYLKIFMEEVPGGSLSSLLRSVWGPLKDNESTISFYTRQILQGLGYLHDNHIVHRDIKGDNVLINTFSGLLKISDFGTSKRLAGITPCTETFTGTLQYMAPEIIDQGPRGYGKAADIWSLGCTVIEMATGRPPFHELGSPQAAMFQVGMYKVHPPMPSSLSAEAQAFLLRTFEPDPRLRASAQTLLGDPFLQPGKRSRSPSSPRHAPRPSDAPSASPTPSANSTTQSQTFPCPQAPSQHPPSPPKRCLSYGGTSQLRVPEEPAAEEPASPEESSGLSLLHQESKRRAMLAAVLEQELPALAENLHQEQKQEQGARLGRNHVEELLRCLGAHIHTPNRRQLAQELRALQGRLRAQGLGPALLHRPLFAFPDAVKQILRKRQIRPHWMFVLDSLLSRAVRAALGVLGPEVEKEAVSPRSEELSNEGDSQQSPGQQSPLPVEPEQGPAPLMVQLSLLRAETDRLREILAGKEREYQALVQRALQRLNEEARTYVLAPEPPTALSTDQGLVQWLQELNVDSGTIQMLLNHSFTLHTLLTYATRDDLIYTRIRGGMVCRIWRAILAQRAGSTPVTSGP

[3] = molecular target: T3, HeLa cell extract proteins (Homo sapiens, UniProt P07339)
T3 construct: endogenous in cells; host or cells: HeLa cell extract
T3 sequence (P07339 65-412): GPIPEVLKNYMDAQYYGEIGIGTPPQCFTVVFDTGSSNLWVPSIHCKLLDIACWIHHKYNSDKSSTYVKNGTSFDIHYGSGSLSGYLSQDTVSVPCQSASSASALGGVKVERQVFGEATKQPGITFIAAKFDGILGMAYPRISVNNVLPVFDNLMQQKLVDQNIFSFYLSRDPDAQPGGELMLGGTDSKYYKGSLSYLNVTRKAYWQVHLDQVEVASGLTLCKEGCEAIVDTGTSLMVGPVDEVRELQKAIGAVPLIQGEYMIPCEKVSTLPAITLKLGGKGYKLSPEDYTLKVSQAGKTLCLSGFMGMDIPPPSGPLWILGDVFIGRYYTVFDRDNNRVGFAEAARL

[4] = molecular target: T4, HeLa cell extract proteins (Homo sapiens, UniProt P28070)
T4 construct: endogenous in cells; host or cells: HeLa cell extract
T4 sequence (P28070 46-264): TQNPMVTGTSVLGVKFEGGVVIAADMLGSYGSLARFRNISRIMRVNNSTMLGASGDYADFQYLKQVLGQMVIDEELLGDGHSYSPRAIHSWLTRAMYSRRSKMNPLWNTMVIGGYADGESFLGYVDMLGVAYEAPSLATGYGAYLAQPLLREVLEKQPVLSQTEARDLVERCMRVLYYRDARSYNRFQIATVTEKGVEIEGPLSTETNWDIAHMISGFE

[5] = molecular target: T5, HeLa cell extract proteins (Homo sapiens, UniProt P31942)
T5 construct: endogenous in cells; host or cells: HeLa cell extract
T5 sequence (P31942 1-346): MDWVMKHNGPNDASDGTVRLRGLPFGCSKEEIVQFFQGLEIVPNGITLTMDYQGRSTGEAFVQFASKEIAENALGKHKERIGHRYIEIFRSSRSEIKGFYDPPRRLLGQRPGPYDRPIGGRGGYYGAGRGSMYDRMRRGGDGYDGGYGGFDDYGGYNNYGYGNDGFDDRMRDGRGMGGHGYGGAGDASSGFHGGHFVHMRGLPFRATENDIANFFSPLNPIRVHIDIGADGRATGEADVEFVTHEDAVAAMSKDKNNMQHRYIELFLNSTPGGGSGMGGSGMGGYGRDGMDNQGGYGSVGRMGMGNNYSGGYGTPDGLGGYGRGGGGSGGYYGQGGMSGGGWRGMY

[6] = molecular target: T6, HeLa cell extract proteins (Homo sapiens, UniProt P61106)
T6 construct: endogenous in cells; host or cells: HeLa cell extract
T6 sequence (P61106 whole entry): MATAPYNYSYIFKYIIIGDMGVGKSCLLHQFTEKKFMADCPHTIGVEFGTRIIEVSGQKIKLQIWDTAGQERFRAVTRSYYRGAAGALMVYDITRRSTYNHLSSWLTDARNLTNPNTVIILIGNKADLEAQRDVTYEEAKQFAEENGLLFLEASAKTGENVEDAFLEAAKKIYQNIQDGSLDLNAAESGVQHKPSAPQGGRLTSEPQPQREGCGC

[7] = molecular target: T7, HeLa cell extract proteins (Homo sapiens, UniProt P63104)
T7 construct: endogenous in cells; host or cells: HeLa cell extract
T7 sequence (P63104 1-245): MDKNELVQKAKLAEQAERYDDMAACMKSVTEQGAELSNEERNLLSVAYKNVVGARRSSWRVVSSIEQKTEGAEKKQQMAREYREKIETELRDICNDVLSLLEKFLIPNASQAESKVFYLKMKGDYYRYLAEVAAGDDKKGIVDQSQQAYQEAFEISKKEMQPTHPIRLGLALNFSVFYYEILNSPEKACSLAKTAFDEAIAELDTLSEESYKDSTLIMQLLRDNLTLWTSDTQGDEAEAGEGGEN

[8] = molecular target: T8, HeLa cell extract proteins (Homo sapiens, UniProt Q01628)
T8 construct: endogenous in cells; host or cells: HeLa cell extract
T8 sequence (Q01628 whole entry): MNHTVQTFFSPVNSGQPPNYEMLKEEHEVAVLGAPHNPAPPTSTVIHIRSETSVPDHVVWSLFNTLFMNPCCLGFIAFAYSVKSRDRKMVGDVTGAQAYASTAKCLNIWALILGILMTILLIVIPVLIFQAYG

[9] = molecular target: T9, HeLa cell extract proteins (Homo sapiens, UniProt Q99623)
T9 construct: endogenous in cells; host or cells: HeLa cell extract
T9 sequence (Q99623 whole entry): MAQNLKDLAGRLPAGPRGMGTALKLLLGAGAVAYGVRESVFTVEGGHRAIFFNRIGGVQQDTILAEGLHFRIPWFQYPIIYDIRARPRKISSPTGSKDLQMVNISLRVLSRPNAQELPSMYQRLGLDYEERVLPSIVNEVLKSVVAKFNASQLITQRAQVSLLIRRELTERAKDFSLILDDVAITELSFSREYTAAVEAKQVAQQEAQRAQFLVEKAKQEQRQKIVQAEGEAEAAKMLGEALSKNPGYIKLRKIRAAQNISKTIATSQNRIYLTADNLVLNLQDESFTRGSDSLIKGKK

[10] = molecular target: T10, HeLa cell extract proteins (Homo sapiens, UniProt Q99832)
T10 construct: endogenous in cells; host or cells: HeLa cell extract
T10 sequence (Q99832 1-543): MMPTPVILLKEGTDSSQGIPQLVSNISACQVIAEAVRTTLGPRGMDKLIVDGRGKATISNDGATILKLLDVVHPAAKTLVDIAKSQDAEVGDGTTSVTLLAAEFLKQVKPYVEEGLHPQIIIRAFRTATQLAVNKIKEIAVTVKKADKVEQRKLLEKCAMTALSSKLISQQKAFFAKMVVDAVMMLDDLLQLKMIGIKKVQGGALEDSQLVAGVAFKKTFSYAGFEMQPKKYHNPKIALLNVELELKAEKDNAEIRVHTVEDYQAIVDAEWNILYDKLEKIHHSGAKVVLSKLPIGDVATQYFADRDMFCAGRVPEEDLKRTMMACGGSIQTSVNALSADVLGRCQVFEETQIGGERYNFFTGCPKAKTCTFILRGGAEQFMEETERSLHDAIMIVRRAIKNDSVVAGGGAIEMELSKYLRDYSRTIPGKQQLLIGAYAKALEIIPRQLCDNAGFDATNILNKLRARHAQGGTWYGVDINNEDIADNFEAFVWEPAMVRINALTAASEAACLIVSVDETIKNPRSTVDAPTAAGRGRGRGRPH

[11] = HeLa, protein YWHAZ (28 KDA PROTEIN.)

T1 sequence (O95372 whole entry): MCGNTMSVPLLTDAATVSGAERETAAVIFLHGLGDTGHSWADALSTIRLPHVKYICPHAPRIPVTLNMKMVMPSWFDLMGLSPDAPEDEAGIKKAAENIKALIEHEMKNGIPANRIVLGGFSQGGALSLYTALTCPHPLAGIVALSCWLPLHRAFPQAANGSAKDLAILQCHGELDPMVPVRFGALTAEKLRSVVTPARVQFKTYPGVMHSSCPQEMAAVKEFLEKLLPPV

Nc1nc2c(c(=O)[nH]1)N(C=O)C(CNc1ccc(C(=O)N[C@@H](CCC(=O)O)C(=O)O)cc1)CN2 (stereo partly shown) [LEU, leucovorin]
fold changes relative to vehicle control ([1]; protein LYPLA2, HeLa): 0.89
fold changes relative to vehicle control ([2]; HeLa, protein MAP3K6): 0.99
fold changes relative to vehicle control ([3]; HeLa, captured protein CTSD): 0.96
fold changes relative to vehicle control ([4]; HeLa, protein PSMB4): 0.98
fold changes relative to vehicle control ([5]; HeLa, captured protein HNRNPH3): 0.94
fold changes relative to vehicle control ([6]; HeLa, protein RAB14): 0.95
fold changes relative to vehicle control ([7]; HeLa, protein YWHAZ): 1.05
fold changes relative to vehicle control ([8]; HeLa, protein IFITM3): 1.21
fold changes relative to vehicle control ([9]; protein PHB2, HeLa): 0.85
fold changes relative to vehicle control ([10]; HeLa, protein CCT7): 1.01

Nc1nc2[nH]cc(CCc3ccc(C(=O)N[C@@H](CCC(=O)O)C(=O)O)cc3)c2c(=O)[nH]1 [PTX, pemetrexed]
fold changes relative to vehicle control [1]: 0.99
fold changes relative to vehicle control [2]: 1.16
fold changes relative to vehicle control [3]: 1
fold changes relative to vehicle control [4]: 0.97
fold changes relative to vehicle control [5]: 0.94
fold changes relative to vehicle control [6]: 0.95
fold changes relative to vehicle control [7]: 1.08
fold changes relative to vehicle control [8]: 1.32
fold changes relative to vehicle control [9]: 0.86
fold changes relative to vehicle control [10]: 1.01

CCCCCCOc1ccc(Cc2cnc(N)nc2N)cc1 [compound 1]
fold changes relative to vehicle control ([1]; HeLa, protein LYPLA2): 0.82
fold changes relative to vehicle control ([2]; HeLa, protein MAP3K6): 0.99
fold changes relative to vehicle control ([3]; protein CTSD, HeLa): 1.14
fold changes relative to vehicle control ([4]; protein PSMB4, HeLa): 1.12
fold changes relative to vehicle control ([5]; protein HNRNPH3, HeLa): 1.08
fold changes relative to vehicle control ([6]; captured protein RAB14, HeLa): 0.89
fold changes relative to vehicle control [7, 11]: 1.31 fold
fold changes relative to vehicle control ([8]; captured protein IFITM3, HeLa): 1.07
fold changes relative to vehicle control ([9]; HeLa, protein PHB2): 0.95
fold changes relative to vehicle control ([10]; protein CCT7, HeLa): 1.08

CCCCCCOc1cccc(Cc2cnc(N)nc2N)c1 [compound 2]
fold changes relative to vehicle control ([1]; HeLa, protein LYPLA2): 1.19
fold changes relative to vehicle control ([2]; HeLa, protein MAP3K6): 0.97
fold changes relative to vehicle control ([3]; protein CTSD, HeLa): 1.26
fold changes relative to vehicle control ([4]; protein PSMB4, HeLa): 1.21
fold changes relative to vehicle control ([5]; protein HNRNPH3, HeLa): 0.97
fold changes relative to vehicle control ([6]; captured protein RAB14, HeLa): 1.22
fold changes relative to vehicle control [7, 11]: 2.26 fold
fold changes relative to vehicle control ([8]; captured protein IFITM3, HeLa): 0.65
fold changes relative to vehicle control ([9]; HeLa, protein PHB2): 0.91
fold changes relative to vehicle control ([10]; protein CCT7, HeLa): 1.62

Nc1nc2cccc(-c3ccccc3)c2n1Cc1ccc(Cl)c(Cl)c1 [compound 3]
fold changes relative to vehicle control ([1]; HeLa, protein LYPLA2): 0.97
fold changes relative to vehicle control ([2]; HeLa, protein MAP3K6): 0.97
fold changes relative to vehicle control ([3]; protein CTSD, HeLa): 0.95
fold changes relative to vehicle control ([4]; protein PSMB4, HeLa): 1.05
fold changes relative to vehicle control ([5]; protein HNRNPH3, HeLa): 1.09
fold changes relative to vehicle control ([6]; captured protein RAB14, HeLa): 0.82
fold changes relative to vehicle control [7, 11]: 0.72 fold
fold changes relative to vehicle control ([8]; captured protein IFITM3, HeLa): 0.9
fold changes relative to vehicle control ([9]; HeLa, protein PHB2): 1.04
fold changes relative to vehicle control ([10]; protein CCT7, HeLa): 0.98

NCCOCCOCC(=O)Nc1nc2ncc(CNc3ccc(C(=O)NC(CCC(=O)O)C(=O)O)cc3)nc2c(=O)[nH]1 (stereo not shown) [compound 6]
fold changes relative to vehicle control ([1]; protein LYPLA2, HeLa): 1.09
fold changes relative to vehicle control ([2]; HeLa, protein MAP3K6): 1.19
fold changes relative to vehicle control ([3]; HeLa, captured protein CTSD): 1.12
fold changes relative to vehicle control ([4]; HeLa, protein PSMB4): 1.04
fold changes relative to vehicle control ([5]; HeLa, captured protein HNRNPH3): 0.99
fold changes relative to vehicle control ([6]; HeLa, protein RAB14): 0.97
fold changes relative to vehicle control ([7]; HeLa, protein YWHAZ): 1.22
fold changes relative to vehicle control ([8]; HeLa, protein IFITM3): 1.14
fold changes relative to vehicle control ([9]; protein PHB2, HeLa): 0.95
fold changes relative to vehicle control ([10]; HeLa, protein CCT7): 1.2

NCCCNc1ccc(C(=O)NC(CCC(=O)O)C(=O)O)cc1 (stereo not shown) [compound 7]
fold changes relative to vehicle control ([1]; protein LYPLA2, HeLa): 1.01
fold changes relative to vehicle control ([2]; HeLa, protein MAP3K6): 1.16
fold changes relative to vehicle control ([3]; HeLa, captured protein CTSD): 0.96
fold changes relative to vehicle control ([4]; HeLa, protein PSMB4): 0.95
fold changes relative to vehicle control ([5]; HeLa, captured protein HNRNPH3): 1.01
fold changes relative to vehicle control ([6]; HeLa, protein RAB14): 0.86
fold changes relative to vehicle control ([7]; HeLa, protein YWHAZ): 0.9
fold changes relative to vehicle control ([8]; HeLa, protein IFITM3): 1.3
fold changes relative to vehicle control ([9]; protein PHB2, HeLa): 1
fold changes relative to vehicle control ([10]; HeLa, protein CCT7): 1.11
